Test results from the supplement of paper PMC8149375.

What was measured:
Settings in all cases: treatment: drug + dasatinib (fixed dose, not stated); 5 days
[1] = tested on: TK-10; assay: AUC of dose-response viability curve, drug + dasatinib, normalised to DMSO (arbitrary (AUC of normalised viability)); higher = less growth inhibition
Protocol: (§1)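 Primary HTS combination arm: 8 RCC cell lines treated with 8 doses (up to 10 uM) of each library drug plus a fixed dose of dasatinib (dose not stated) for 5 days; viability read by CellTiter-Glo and normalised to DMSO. GI50 was fitted with XLfit, AUC is the area under the dose-response curve, and minimum viability is the lowest fraction of DMSO viability across doses.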

[2] = tested on: CAKI-1; assay: as above
Protocol: as §1

[3] = tested on: SN12C; assay: as above
Protocol: as §1

[4] = tested on: 786-O; assay: as above
Protocol: as §1

[5] = tested on: UO-31; assay: as above
Protocol: as §1

[6] = tested on: 769-P; assay: as above
Protocol: as §1

[7] = tested on: ACHN; assay: as above
Protocol: as §1

[8] = tested on: A498; assay: as above
Protocol: as §1

[9] = tested on: TK-10; assay: GI50 of drug in presence of dasatinib; higher = less potent
Protocol: as §1

[10] = tested on: CAKI-1; assay: as above
Protocol: as §1

[11] = tested on: SN12C; assay: as above
Protocol: as §1

[12] = tested on: 786-O; assay: as above
Protocol: as §1

[13] = tested on: UO-31; assay: as above
Protocol: as §1

[14] = tested on: 769-P; assay: as above
Protocol: as §1

[15] = tested on: ACHN; assay: as above
Protocol: as §1

[16] = tested on: A498; assay: as above
Protocol: as §1

[17] = tested on: TK-10; assay: minimum viability across doses, drug + dasatinib, relative to DMSO (fraction); higher = less growth inhibition
Protocol: as §1

[18] = tested on: CAKI-1; assay: as above
Protocol: as §1

[19] = tested on: SN12C; assay: as above
Protocol: as §1

[20] = tested on: 786-O; assay: as above
Protocol: as §1

[21] = tested on: UO-31; assay: as above
Protocol: as §1

[22] = tested on: 769-P; assay: as above
Protocol: as §1

[23] = tested on: ACHN; assay: as above
Protocol: as §1

[24] = tested on: A498; assay: as above
Protocol: as §1

| GI50 of drug [12] | GI50 of drug [15] | Structure (SMILES) | AUC of dose-response viability curve [1] | AUC of dose-response viability curve [2] | AUC of dose-response viability curve [3] | AUC of dose-response viability curve [4] | AUC of dose-response viability curve [5] | AUC of dose-response viability curve [6] | AUC of dose-response viability curve [7] | AUC of dose-response viability curve [8] | GI50 of drug [9] | GI50 of drug [10] | GI50 of drug [11] | GI50 of drug [13] | GI50 of drug [14] | GI50 of drug [16] | minimum viability across doses [17] | minimum viability across doses [18] | minimum viability across doses [19] | minimum viability across doses [20] | minimum viability across doses [21] | minimum viability across doses [22] | minimum viability across doses [23] | minimum viability across doses [24] |
| --- | --- | --- | --- | --- | --- | --- | --- | --- | --- | --- | --- | --- | --- | --- | --- | --- | --- | --- | --- | --- | --- | --- | --- | --- |
| > 10 µM | > 10 µM | O=C1CCC(N2C(=O)c3ccccc3C2=O)C(=O)N1 (stereo unspecified) [Thalidomide] + Cc1nc(Nc2ncc(C(=O)Nc3c(C)cccc3Cl)s2)cc(N2CCN(CCO)CC2)n1 [dasatinib] | 2.48 | 2.35 | 2.52 | 2.49 | 4.13 | 2.54 | 2.17 | 3.94 | > 10 µM | > 10 µM | > 10 µM | > 10 µM | > 10 µM | > 10 µM | 0.665 | 0.638 | 0.679 | 0.556 | 1.03 | 0.666 | 0.555 | 0.971 |
| 2.39 µM | 2.07 µM | O=C(NCc1ccccc1)c1csc(Nc2ccncn2)n1 [Thiazovivin] + Cc1nc(Nc2ncc(C(=O)Nc3c(C)cccc3Cl)s2)cc(N2CCN(CCO)CC2)n1 [dasatinib] | 2.73 | 2.04 | 2.56 | 2.04 | 2.79 | 2.27 | 2.12 | 3.03 | > 10 µM | 1.87 µM | > 10 µM | 1.65 µM | 2.83 µM | > 10 µM | 0.494 | 0.175 | 0.694 | 0.327 | 0.0123 | 0.318 | 0.225 | 0.777 |
| 8.92 µM | > 10 µM | COc1ccc2cc(-c3[nH]c(-c4ccc(S(C)=O)cc4)nc3-c3ccncc3)ccc2c1 (stereo unspecified) [Tie2 kinase inhibitor] + Cc1nc(Nc2ncc(C(=O)Nc3c(C)cccc3Cl)s2)cc(N2CCN(CCO)CC2)n1 [dasatinib] | 2.69 | 2.41 | 2.4 | 2.51 | 4.56 | 2.36 | 2.03 | 3.88 | > 10 µM | > 10 µM | > 10 µM | > 10 µM | > 10 µM | > 10 µM | 0.68 | 0.657 | 0.64 | 0.468 | 1.07 | 0.595 | 0.521 | 0.97 |
| > 10 µM | 1.63 µM | COc1cc2nccc(Oc3ccc(NC(=O)Nc4cc(C)on4)c(Cl)c3)c2cc1OC [Tivozanib (AV-951)] + Cc1nc(Nc2ncc(C(=O)Nc3c(C)cccc3Cl)s2)cc(N2CCN(CCO)CC2)n1 [dasatinib] | 2.55 | 1.75 | 2.12 | 2.68 | 3.32 | 2.1 | 1.95 | 3.13 | 9.67 µM | 0.743 µM | 1.95 µM | 4.15 µM | 1.57 µM | 9.89 µM | 0.493 | 0.0242 | 0.134 | 0.569 | 0.0455 | 0.146 | 0.0982 | 0.457 |
| < 0.003 µM | > 10 µM | CC(C)(C)c1cc(/C=C(\C#N)C(N)=S)cc(C(C)(C)C)c1O [Tyrphostin AG 879 (AG 879)] + Cc1nc(Nc2ncc(C(=O)Nc3c(C)cccc3Cl)s2)cc(N2CCN(CCO)CC2)n1 [dasatinib] | 2.39 | 2.38 | 2.56 | 1.83 | 5.04 | 2.55 | 2.11 | 3.69 | > 10 µM | 7.59 µM | > 10 µM | > 10 µM | > 10 µM | > 10 µM | 0.653 | 0.45 | 0.706 | 0.458 | 1.26 | 0.689 | 0.556 | 1 |
| 0.152 µM | 0.145 µM | Cc1cc(Nc2cc(N3CCN(C)CC3)nc(Sc3ccc(NC(=O)C4CC4)cc3)n2)n[nH]1 [VX-680 (MK-0457, Tozasertib)] + Cc1nc(Nc2ncc(C(=O)Nc3c(C)cccc3Cl)s2)cc(N2CCN(CCO)CC2)n1 [dasatinib] | 2.73 | 1.6 | 1.97 | 1.88 | 2.75 | 1.79 | 1.68 | 2.4 | > 10 µM | 0.0951 µM | 0.511 µM | 3.33 µM | 0.325 µM | 1.11 µM | 0.536 | 0.077 | 0.0667 | 0.308 | 0.0311 | 0.269 | 0.139 | 0.183 |
| 5.42 µM | 0.305 µM | COc1cc2c(Nc3ccc(Br)cc3F)ncnc2cc1OCC1CCN(C)CC1 [Vandetanib (Zactima)] + Cc1nc(Nc2ncc(C(=O)Nc3c(C)cccc3Cl)s2)cc(N2CCN(CCO)CC2)n1 [dasatinib] | 2.46 | 2.07 | 2.48 | 2.55 | 2.64 | 2.01 | 1.82 | 3.11 | 1.49 µM | 2.21 µM | > 10 µM | 1.88 µM | 1.13 µM | 7.71 µM | 0.161 | 0.0882 | 0.456 | 0.332 | 0.0159 | 0.157 | 0.0849 | 0.366 |
| 3.84 µM | 5.76 µM | CCCS(=O)(=O)Nc1ccc(F)c(C(=O)c2c[nH]c3ncc(-c4ccc(Cl)cc4)cc23)c1F [Vemurafenib (PLX4032)] + Cc1nc(Nc2ncc(C(=O)Nc3c(C)cccc3Cl)s2)cc(N2CCN(CCO)CC2)n1 [dasatinib] | 2.4 | 2.39 | 2.62 | 2.11 | 3.4 | 2 | 2.05 | 3.37 | 9.22 µM | > 10 µM | > 10 µM | > 10 µM | > 10 µM | > 10 µM | 0.6 | 0.57 | 0.719 | 0.326 | 0.853 | 0.618 | 0.403 | 0.838 |
| 0.524 µM | 0.0912 µM | c1cncc(CN2CCC(n3ncc4c(N5CCOCC5)nc(-c5ccc6[nH]ccc6c5)nc43)CC2)c1 [WAY-600] + Cc1nc(Nc2ncc(C(=O)Nc3c(C)cccc3Cl)s2)cc(N2CCN(CCO)CC2)n1 [dasatinib] | 1.83 | 1.63 | 1.85 | 1.56 | 2.62 | 1.93 | 1.39 | 3.1 | 0.433 µM | 0.306 µM | 0.523 µM | 1.1 µM | 0.688 µM | 4.49 µM | 0.045 | 0.0191 | 0.119 | 0.00323 | 0.0101 | 0.0156 | 0.0438 | 0.0551 |
| > 10 µM | 0.0337 µM | COc1cc2ncnc(Nc3ccc(O)c(Br)c3)c2cc1OC [WHI-P154] + Cc1nc(Nc2ncc(C(=O)Nc3c(C)cccc3Cl)s2)cc(N2CCN(CCO)CC2)n1 [dasatinib] | 2.16 | 2.26 | 2.51 | 2.26 | 5.45 | 2.22 | 1.42 | 3.93 | 1.92 µM | 2.98 µM | > 10 µM | > 10 µM | 2.58 µM | > 10 µM | 0.422 | 0.211 | 0.603 | 0.547 | 1.22 | 0.348 | 0.218 | 0.937 |
| 4.31 µM | 0.00856 µM | C[C@H](NC(=O)/C(C#N)=C/c1cccc(Br)n1)c1ccccc1 [WP1066] + Cc1nc(Nc2ncc(C(=O)Nc3c(C)cccc3Cl)s2)cc(N2CCN(CCO)CC2)n1 [dasatinib] | 2.77 | 2.28 | 2.36 | 2.35 | 4.08 | 2.49 | 1.48 | 3.03 | > 10 µM | 3.97 µM | > 10 µM | 7.91 µM | 3.93 µM | > 10 µM | 0.713 | 0.285 | 0.385 | 0.0254 | 0.00793 | 0.0555 | 0.0689 | 0.638 |
| 0.279 µM | 4.37 µM | CCC[C@H](NC(=O)/C(C#N)=C/c1cccc(Br)n1)c1ccccc1 [WP1130] + Cc1nc(Nc2ncc(C(=O)Nc3c(C)cccc3Cl)s2)cc(N2CCN(CCO)CC2)n1 [dasatinib] | 2.43 | 2.12 | 2.37 | 1.79 | 3.53 | 2.25 | 1.95 | 2.69 | 4.75 µM | 2.19 µM | 3.93 µM | 4.24 µM | 3.1 µM | 4.1 µM | 0.191 | 0.0305 | 0.00838 | 0.00681 | 0.0123 | 0.0169 | 0.00233 | 0.02 |
| 0.381 µM | 0.0747 µM | COC(=O)Nc1ccc(-c2nc(N3CCOCC3)c3cnn(C4CCN(C(=O)OC)CC4)c3n2)cc1 [WYE-354] + Cc1nc(Nc2ncc(C(=O)Nc3c(C)cccc3Cl)s2)cc(N2CCN(CCO)CC2)n1 [dasatinib] | 1.83 | 1.71 | 2.08 | 1.76 | 2.63 | 1.84 | 1.33 | 2.63 | 0.329 µM | 0.345 µM | 0.8 µM | 0.894 µM | 0.457 µM | 1.98 µM | 0.208 | 0.0632 | 0.215 | 0.307 | 0.019 | 0.122 | 0.0892 | 0.262 |
| 0.618 µM | 0.0833 µM | COC(=O)Nc1ccc(-c2nc(N3CCOCC3)c3cnn(C4CCN(Cc5cccnc5)CC4)c3n2)cc1 [WYE-687] + Cc1nc(Nc2ncc(C(=O)Nc3c(C)cccc3Cl)s2)cc(N2CCN(CCO)CC2)n1 [dasatinib] | 1.79 | 1.51 | 1.78 | 2.02 | 2.8 | 1.81 | 1.38 | 2.89 | 0.231 µM | 0.153 µM | 0.414 µM | 0.572 µM | 0.481 µM | 2.28 µM | 0.058 | 0.0365 | 0.13 | 0.212 | 0.00676 | 0.074 | 0.0388 | 0.251 |
